Reference: patent US20230062278A1, “COMPOUNDS FOR THE TREATMENT OF MYELOFIBROSIS” (ACTUATE THERAPEUTICS, INC., priority 2019, published 2023)

How the values were obtained:
[1] = system: bone marrow from healthy patients; assay: ex vivo colony assay in methylcellulose, normal bone marrow (control); assay type: cell-based, human; conditions: 9-ING-41 alone
Description: (§1) In order to study the effects of 9-ING-41 (alone and in combination with Ruxolitinib) on growth and proliferation in MF, ex vivo colony assays were conducted using primary cells from patients with previously untreated MF and normal bone marrow. The experiments were designed to assess the number, size, and morphology of stem/progenitor cells present in blood both with and without treatment.
(§2) Peripheral blood mononuclear cells from MF patients and bone marrow from healthy patients (control) were plated in methylcellulose in duplicate, containing cytokines, in the presence of either DMSO only, 9-ING-41 only, or a combination of 9-ING-41 and Ruxolitinib (0.05uM). Colonies were counted ten days later, and colony growth frequency, distribution, and morphology were calculated.

[2] = system: renal cell carcinoma cell lines; conditions: renal cell carcinoma cell lines (Pal 2014); cited from earlier work
[3] = system: peripheral blood mononuclear cells from MF patients; assay: ex vivo colony assay in methylcellulose, primary cells from MF patients; assay type: cell-based, human
Description: as §1, §2

## Cn1cc(C2=C(c3coc4ccc(F)cc34)C(=O)NC2=O)c2cc3c(cc21)OCO3 [9-ING-41, 3-(5-fluorobenzofuran-3-yl)-4-(5-methyl-5H-[1,3]dioxolo[4,5-f]indol-7-yl)pyrrole-2,5-dione]
[1]
  colony size: modest increase in colony size
[2]
  antiproliferative activity: cell-cycle effect: G0-G1 and G2-M phase arrest
[3]; 9-ING-41 only, MF cases as compared to normal, counted after ten days, FIGS. 1A, 1D, 2A, 2C
  primitive granulocytic/erythroid/macrophage/monocyte (GEMM) colony growth: increased relative to 9-ING-41 concentration
[3]; MF cases 1 and 2, Ruxolitinib 0.05 µM where combined
  size and presence of primitive colonies: increase in very large, fully differentiated primitive colonies
[3]; after addition of 9-ING-41, colonies counted ten days after plating, vs DMSO
  presence of erythroid (BFU-E), granulocytic (CFU-G) and granulocytic/monocytic (CFU-GM) colonies: remained proportionally the same
